In US12509452B2, “Substituted-isoxazoline-containing aromatic compound, preparation method therefor, herbicidal composition and use thereof” (QINGDAO KINGAGROOT CHEMICAL COMPOUND CO., LTD., priority 2019, dated 2025):

Columns and labels:
Experiment in all cases: weeding effect in post-emergence stage
Assay type in all cases: in vivo
Conyza japonica = system: Conyza japonica
Outline: (§1)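 Read-out is fresh weight growth control rate, binned into levels 0-5 (Level 5 above 85%, Level 0 below 5%), recorded 3 weeks after spraying and averaged over three repeats. Plants were treated at the 2-3 leaf stage with 7.5-500 g a.i./ha plus methyl oleate synergist.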

Alopecurus japonicus = system: Alopecurus japonicus
Outline: as §1

Rorippa indica = system: Rorippa indica
Outline: as §1

Beckmannia syzigachne = system: Beckmannia syzigachne
Outline: as §1

Compound	weeding effect in post-emergence stage, Conyza japonica (activity level) (Conyza japonica; dose 15 g a.i./ha)	weeding effect in post-emergence stage, Alopecurus japonicus (activity level) (Alopecurus japonicus; dose 15 g a.i./ha)	weeding effect in post-emergence stage, Rorippa indica (activity level) (Rorippa indica; dose 15 g a.i./ha)	weeding effect in post-emergence stage, Beckmannia syzigachne (activity level) (Beckmannia syzigachne; dose 15 g a.i./ha)	weeding effect in post-emergence stage, Conyza japonica (activity level) (Conyza japonica; dose 125 g a.i./ha)	weeding effect in post-emergence stage, Alopecurus japonicus (activity level) (Alopecurus japonicus; dose 125 g a.i./ha)	weeding effect in post-emergence stage, Rorippa indica (activity level) (Rorippa indica; dose 125 g a.i./ha)	weeding effect in post-emergence stage, Beckmannia syzigachne (activity level) (Beckmannia syzigachne; dose 125 g a.i./ha)	weeding effect in post-emergence stage, Conyza japonica (activity level) (Conyza japonica; dose 7.5 g a.i./ha)	weeding effect in post-emergence stage, Alopecurus japonicus (activity level) (Alopecurus japonicus; dose 7.5 g a.i./ha)	weeding effect in post-emergence stage, Rorippa indica (activity level) (Rorippa indica; dose 7.5 g a.i./ha)	weeding effect in post-emergence stage, Beckmannia syzigachne (activity level) (Beckmannia syzigachne; dose 7.5 g a.i./ha)
COC(=O)[C@@]1(c2ccccc2)CC(c2cc(-n3c(=O)n(C)c(=S)n(C)c3=O)c(F)cc2Cl)=NO1 [56(S)]	5 (Level 5: growth control rate is above 85%)	5 (Level 5: growth control rate is above 85%)	5 (Level 5: growth control rate is above 85%)	5 (Level 5: growth control rate is above 85%)								
COC(=O)[C@]1(Cc2ccccc2)CC(c2cc(-n3c(=O)n(C)c(=S)n(C)c3=O)c(F)cc2Cl)=NO1 [59(S)]	5 (Level 5: growth control rate is above 85%)	5 (Level 5: growth control rate is above 85%)	5 (Level 5: growth control rate is above 85%)	5 (Level 5: growth control rate is above 85%)								
CCOC(=O)[C@]1(CC)CC(c2cc(-n3c(=O)cc(C(F)(F)F)n(C)c3=O)c(F)cc2Cl)=NO1 [105(S)]					5 (Level 5: growth control rate is above 85%)	5 (Level 5: growth control rate is above 85%)	5 (Level 5: growth control rate is above 85%)	5 (Level 5: growth control rate is above 85%)				
CCOC(=O)[C@@]1(C2CC2)CC(c2cc(-n3c(=O)cc(C(F)(F)F)n(C)c3=O)c(F)cc2Cl)=NO1 [119(S)]					5 (Level 5: growth control rate is above 85%)	5 (Level 5: growth control rate is above 85%)	5 (Level 5: growth control rate is above 85%)	5 (Level 5: growth control rate is above 85%)	4 (Level 4: growth control rate is greater than or equal to 60% and less than 85%)	5 (Level 5: growth control rate is above 85%)	4 (Level 4: growth control rate is greater than or equal to 60% and less than 85%)	5 (Level 5: growth control rate is above 85%)
CCOC(=O)[C@@]1(C2CCC2)CC(c2cc(-n3c(=O)cc(C(F)(F)F)n(C)c3=O)c(F)cc2Cl)=NO1 [126(S)]	5 (Level 5: growth control rate is above 85%)	5 (Level 5: growth control rate is above 85%)	5 (Level 5: growth control rate is above 85%)	5 (Level 5: growth control rate is above 85%)								
COC(=O)[C@@]1(F)CC(c2cc(-n3c(=O)cc(C(F)(F)F)n(C)c3=O)c(F)cc2Cl)=NO1 [129(S)]	5 (Level 5: growth control rate is above 85%)	5 (Level 5: growth control rate is above 85%)	5 (Level 5: growth control rate is above 85%)	5 (Level 5: growth control rate is above 85%)								
CCOC(=O)[C@]1(CF)CC(c2cc(-n3c(=O)cc(C(F)(F)F)n(C)c3=O)c(F)cc2Cl)=NO1 [132(S)]	5 (Level 5: growth control rate is above 85%)	5 (Level 5: growth control rate is above 85%)	5 (Level 5: growth control rate is above 85%)	5 (Level 5: growth control rate is above 85%)								
CCOC(=O)[C@]1(C(F)F)CC(c2cc(-n3c(=O)cc(C(F)(F)F)n(C)c3=O)c(F)cc2Cl)=NO1 [134(S)]	5 (Level 5: growth control rate is above 85%)	5 (Level 5: growth control rate is above 85%)	5 (Level 5: growth control rate is above 85%)	5 (Level 5: growth control rate is above 85%)								
CCOC(=O)[C@]1(C(F)(F)F)CC(c2cc(-n3c(=O)cc(C(F)(F)F)n(C)c3=O)c(F)cc2Cl)=NO1 [135(S)]	5 (Level 5: growth control rate is above 85%)	5 (Level 5: growth control rate is above 85%)	5 (Level 5: growth control rate is above 85%)	5 (Level 5: growth control rate is above 85%)								
CCOC(=O)[C@@]1(CCF)CC(c2cc(-n3c(=O)cc(C(F)(F)F)n(C)c3=O)c(F)cc2Cl)=NO1 [136(S)]	5 (Level 5: growth control rate is above 85%)	5 (Level 5: growth control rate is above 85%)	5 (Level 5: growth control rate is above 85%)	5 (Level 5: growth control rate is above 85%)								
CCOC(=O)[C@@]1(CO)CC(c2cc(-n3c(=O)cc(C(F)(F)F)n(C)c3=O)c(F)cc2Cl)=NO1 [142(S)]	5 (Level 5: growth control rate is above 85%)	5 (Level 5: growth control rate is above 85%)	5 (Level 5: growth control rate is above 85%)	5 (Level 5: growth control rate is above 85%)								
CCOC(=O)[C@@]1(C=O)CC(c2cc(-n3c(=O)cc(C(F)(F)F)n(C)c3=O)c(F)cc2Cl)=NO1 [152(S)]	5 (Level 5: growth control rate is above 85%)	5 (Level 5: growth control rate is above 85%)	5 (Level 5: growth control rate is above 85%)	5 (Level 5: growth control rate is above 85%)								
CCOC(=O)[C@@]1(C(C)C)CC(c2cc(-n3c(=O)n(C)c(=S)n(C)c3=S)c(F)cc2Cl)=NO1 [204(S)]	5 (Level 5: growth control rate is above 85%)	5 (Level 5: growth control rate is above 85%)	5 (Level 5: growth control rate is above 85%)	5 (Level 5: growth control rate is above 85%)								
CCCC[C@@]1(C(=O)OCC)CC(c2cc(-n3c(=O)n(C)c(=S)n(C)c3=S)c(F)cc2Cl)=NO1 [205(S)]	5 (Level 5: growth control rate is above 85%)	5 (Level 5: growth control rate is above 85%)	5 (Level 5: growth control rate is above 85%)	5 (Level 5: growth control rate is above 85%)								
CCOC(=O)[C@]1(C(F)(F)F)CC(c2cc(-n3c(=O)n(C)c(=S)n(C)c3=S)c(F)cc2Cl)=NO1 [206(S)]	5 (Level 5: growth control rate is above 85%)	5 (Level 5: growth control rate is above 85%)	5 (Level 5: growth control rate is above 85%)	5 (Level 5: growth control rate is above 85%)								
CCOC(=O)[C@@]1(COC=O)CC(c2cc(-n3c(=O)cc(C(F)(F)F)n(C)c3=O)c(F)cc2Cl)=NO1 [218(S)]	5 (Level 5: growth control rate is above 85%)	5 (Level 5: growth control rate is above 85%)	5 (Level 5: growth control rate is above 85%)	5 (Level 5: growth control rate is above 85%)								
CCOC(=O)[C@@]1(COC(=O)C(=O)O)CC(c2cc(-n3c(=O)cc(C(F)(F)F)n(C)c3=O)c(F)cc2Cl)=NO1 [220(S)]	5 (Level 5: growth control rate is above 85%)	5 (Level 5: growth control rate is above 85%)	5 (Level 5: growth control rate is above 85%)	5 (Level 5: growth control rate is above 85%)								
COC(=O)[C@]1(OC)CC(c2cc(-n3c(=O)cc(C(F)(F)F)n(C)c3=O)c(F)cc2Cl)=NO1 [226(S)]	5 (Level 5: growth control rate is above 85%)	5 (Level 5: growth control rate is above 85%)	5 (Level 5: growth control rate is above 85%)	5 (Level 5: growth control rate is above 85%)								
CCOC(=O)[C@]1(CC)CC(c2cc(-n3c(=S)cc(C(F)(F)F)n(C)c3=O)c(F)cc2Cl)=NO1 [228(S)]					5 (Level 5: growth control rate is above 85%)	5 (Level 5: growth control rate is above 85%)	5 (Level 5: growth control rate is above 85%)	5 (Level 5: growth control rate is above 85%)				
